In patent US20100035848A1, “THERAPY FOR DISORDERS OF THE PROXIMAL DIGESTIVE TRACT” (priority 2008, published 2010):

System: LPS-induced NF-κB dependent transcription
Experiment: In vivo imaging of LPS-induced NF-κB dependent transcription in NF-κB::Luc mice
Set-up: species or system mouse
From the text: More particularly, transgenic NF-κB::Luc mice were generated using three NF-κB response elements from the Igκ light chain promoter fused to a firefly luciferase gene as described by Carlsen et al. (2002) J. Immunol. 168:1441-1446. Pronuclear microinjection of purified construct DNA was used to generate transgenic founders in the C57BL/6 XCBA/J background. Founders were subsequently back-crossed to the C57BL/6 albino background. All experimental protocols were approved by the Institutional Animal Care and Use Committee and conform to the ILAR guide for the care and used of laboratory animals. For in vivo imaging, NF-κB::Luc mice were injected intraperitoneally with luciferin (150 mg/1 kg) 10 minutes before imaging, anesthetized (using 1-3% isoflurane) and placed into a light-tight camera box. […] Signal data were also quantitated and archived using the Living Image® software. Photons of light were quantitated using an oval region of interest (ROI) of varying sizes depending on the procedure, as described further below.
GL1001 was further tested for in vivo anti-inflammatory activity by examining its effects on bacterial LPS-induced NF-κB dependent transcription in NF-κB::Luc mice. […] Mice were subjected to quantitative abdominal imaging at 2, 4 and 6 hours following LPS administration, as described above. […] Luciferase signal was quantitated from several regions of interest. […]

CC(C)C[C@H](N[C@@H](Cc1cncn1Cc1cc(Cl)cc(Cl)c1)C(=O)O)C(=O)O [GL1001, (S,S)-2-[1-carboxy-2-[3-(3,5-dichlorobenzyl)-3H-imidazol-4-yl]-ethylamino]-4-methylpentanoic acid]
LPS induced NF-κB signaling response, abdominal region (GL1001 30, 100 and 300 mg/kg s.c. 1 hour before LPS i.v., FIG. 3): significantly reduced
LPS-induced NF-κB signaling, abdominal region (repeat with dose range 3-100 mg/kg s.c., effect at 30 and 100 mg/kg, FIG. 4): significantly reduced
